Reference: US12528772B2, “Formulations of T-type calcium channel modulators and methods of use thereof” (Praxis Precision Medicines, Inc., priority 2019, dated 2026)

Tested on: T-type calcium channels in the thalamocortical circuit
Experiment: Phase 1 sleep EEG in healthy volunteers (NREM sigma)
Format: in vivo, human
Details: FIG. 12
Protocol: This was a 2-part, Phase 1 double blind, placebo controlled trial to assess the safety, tolerability, PK, and PD (including the KSS, the KDT, the SQSQ and 24-hour EEG recordings), of single, ascending (Part A: 20, 40, and 60 mg)) and multiple, ascending (Part B: 20 and 40 mg for 8 days) doses of the 20 mg tablet (formulation 3) in healthy participants. […] Variability in Cmax and AUC increased with increasing dose following a single oral dose of the 20 mg tablet formulation (formulation 3).
The T-type calcium channels expressed in the thalamus are critically involved in the generation and modulation of sleep spindles which are prominent thalamocortical oscillations during NREM sleep. Sleep spindles are detected in the EEG as the sigma frequency band (11-15 Hz) (FIG. 12).

Structure (SMILES): CC(C)(C)NC(=O)CN1CCC(CNC(=O)c2cc(F)cc(Cl)c2)CC1 [the compound of formula (I)]
- power in the sigma frequency band (11-15 Hz), NREM sleep EEG: decrease of power in the sigma frequency band
